Laboratory results from patent US10590128B2, “6,7,8,9-tetrahydro-5H-pyrido[2,3-d]azepine dopamine D3 ligands” (Pfizer Inc., priority 2016, dated 2020).

What was measured:
[1] = molecular target: human dopamine D3 receptor (hD3R) (Homo sapiens, UniProt P35462); assay: Human D3 receptor binding assay ([^3H]-7-OH-DPAT); details: CHO cells expressing hD3R, geometric mean of 2-5 determinations unless marked b (single determination), read-out: hD3 in CHO cells Ki
[2] = molecular target: human dopamine D2 receptor (hD2R) (Homo sapiens, UniProt P14416); assay: Human D2 receptor binding assay ([^3H]-Spiperone); details: CHO cells expressing hD2R, geometric mean of 2-5 determinations unless marked b (single determination)
Chain of human dopamine D2 receptor (hD2R) (P14416 whole entry): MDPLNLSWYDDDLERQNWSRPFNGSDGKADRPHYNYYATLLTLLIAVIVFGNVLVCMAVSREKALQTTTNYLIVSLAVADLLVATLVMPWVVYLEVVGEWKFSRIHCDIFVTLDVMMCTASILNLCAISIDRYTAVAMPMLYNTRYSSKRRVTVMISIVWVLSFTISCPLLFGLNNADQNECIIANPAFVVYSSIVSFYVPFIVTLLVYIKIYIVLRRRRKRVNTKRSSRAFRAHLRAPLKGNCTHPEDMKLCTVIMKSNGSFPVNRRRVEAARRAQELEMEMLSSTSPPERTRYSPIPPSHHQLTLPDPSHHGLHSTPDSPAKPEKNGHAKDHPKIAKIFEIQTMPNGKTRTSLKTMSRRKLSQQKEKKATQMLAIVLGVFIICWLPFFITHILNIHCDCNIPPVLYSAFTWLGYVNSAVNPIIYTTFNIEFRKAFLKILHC

Chain of human dopamine D3 receptor (hD3R) (P35462 whole entry): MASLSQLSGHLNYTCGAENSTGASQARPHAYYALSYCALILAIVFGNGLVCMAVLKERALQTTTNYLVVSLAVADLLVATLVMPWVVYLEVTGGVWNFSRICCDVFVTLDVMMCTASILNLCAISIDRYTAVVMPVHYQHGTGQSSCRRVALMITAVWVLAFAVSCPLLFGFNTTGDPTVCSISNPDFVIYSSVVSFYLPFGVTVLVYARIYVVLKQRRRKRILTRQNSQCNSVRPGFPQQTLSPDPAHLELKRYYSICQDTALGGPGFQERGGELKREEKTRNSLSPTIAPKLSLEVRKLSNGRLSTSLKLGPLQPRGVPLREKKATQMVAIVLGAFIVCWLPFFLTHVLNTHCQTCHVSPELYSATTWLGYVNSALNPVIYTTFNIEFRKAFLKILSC

| Ki [1] [nM] | Ki [2] [nM] | Structure (SMILES) |
| --- | --- | --- |
| 4.77 | 392 | CCN1CCc2cc(NS(=O)(=O)c3ccc(C4(C)CCOCC4)cc3)c(OC)nc2CC1 [Example 69, N-(7-ethyl-2-methoxy-6,7,8,9-tetrahydro-5H-pyrido[2,3-d]azepin-3-yl)-4-(4-methyltetrahydro-2H-pyran-4-yl)benzenesulfonamide] |
| 4.84 | 754 | CCN1CCc2cc(NS(=O)(=O)c3ccc(C4CCOC4)cc3)c(OC)nc2CC1 (stereo not drawn) [Example 71, N-(7-ethyl-2-methoxy-6,7,8,9-tetrahydro-5H-pyrido[2,3-d]azepin-3-yl)-4-(tetrahydrofuran-3-yl)benzenesulfonamide] |
| 2.65 | 420 | CCN1CCc2cc(NS(=O)(=O)c3ccc([C@H]4C[C@@H](OC)C4)cc3)c(OC)nc2CC1 [Example 72, N-(7-ethyl-2-methoxy-6,7,8,9-tetrahydro-5H-pyrido[2,3-d]azepin-3-yl)-4-(cis-3-methoxycyclobutyl)benzenesulfonamide] |
| 3.2 | 262 | CCN1CCc2cc(NS(=O)(=O)c3ccc(C4(F)CCOCC4)cc3)c(OC)nc2CC1 [Example 75, N-(7-ethyl-2-methoxy-6,7,8,9-tetrahydro-5H-pyrido[2,3-d]azepin-3-yl)-4-(4-fluorotetrahydro-2H-pyran-4-yl)benzenesulfonamide] |
| 1.28 | 203 | COc1nc2c(cc1NS(=O)(=O)c1ccc([C@H]3C[C@H](OC)C3)cc1)CCN(C)CC2 [Example 76, 4-(trans-3-methoxycyclobutyl)-N-(2-methoxy-7-methyl-6,7,8,9-tetrahydro-5H-pyrido[2,3-d]azepin-3-yl)benzenesulfonamide] |
| 7.56 | 718 | COc1nc2c(cc1NS(=O)(=O)c1ccc(OC3CCOCC3)cc1)CCN(C)CC2 [Example 78, N-(2-methoxy-7-methyl-6,7,8,9-tetrahydro-5H-pyrido[2,3-d]azepin-3-yl)-4-(tetrahydro-2H-pyran-4-yloxy)benzenesulfonamide] |
| 3.67 | 403 | COc1nc2c(cc1NS(=O)(=O)c1ccc(C3(C)CCOCC3)cc1)CCN(C)CC2 [Example 79, N-(2-methoxy-7-methyl-6,7,8,9-tetrahydro-5H-pyrido[2,3-d]azepin-3-yl)-4-(4-methyltetrahydro-2H-pyran-4-yl)benzenesulfonamide] |
| 1.77 | 238 | COc1nc2c(cc1NS(=O)(=O)c1ccc(C3(F)CCOCC3)cc1)CCN(C)CC2 [Example 80, 4-(4-fluorotetrahydro-2H-pyran-4-yl)-N-(2-methoxy-7-methyl-6,7,8,9-tetrahydro-5H-pyrido[2,3-d]azepin-3-yl)benzenesulfonamide] |
| 1.19 | 311 | COc1nc2c(cc1NS(=O)(=O)c1ccc([C@H]3C[C@@H](OC)C3)cc1)CCN(C)CC2 [Example 81, 4-(cis-3-methoxycyclobutyl)-N-(2-methoxy-7-methyl-6,7,8,9-tetrahydro-5H-pyrido[2,3-d]azepin-3-yl)benzenesulfonamide] |
| 4.37 | 342 | COc1nc2c(cc1NS(=O)(=O)c1ccc(OC3CCOC3)cc1)CCN(C)CC2 (stereo not drawn) [Example 82, N-(2-methoxy-7-methyl-6,7,8,9-tetrahydro-5H-pyrido[2,3-d]azepin-3-yl)-4-(tetrahydrofuran-3-yloxy)benzenesulfonamide] |
| 1.67 | 76 | COc1nc2c(cc1NS(=O)(=O)c1ccc([C@H](C)OC)cc1)CCN(C)CC2 [Example 89, 4-[(1S)-1-methoxyethyl]-N-(2-methoxy-7-methyl-6,7,8,9-tetrahydro-5H-pyrido[2,3-d]azepin-3-yl)benzenesulfonamide] |
| 1.93 | 207 | COc1nc2c(cc1NS(=O)(=O)c1ccc([C@@H](C)OC)cc1)CCN(C)CC2 [Example 90, 4-[(1R)-1-methoxyethyl]-N-(2-methoxy-7-methyl-6,7,8,9-tetrahydro-5H-pyrido[2,3-d]azepin-3-yl)benzenesulfonamide] |
| 3.37 | 208 | COc1nc2c(cc1NS(=O)(=O)c1ccc(O[C@H]3CCOC3)cc1)CCN(C)CC2 [Example 91, N-(2-methoxy-7-methyl-6,7,8,9-tetrahydro-5H-pyrido[2,3-d]azepin-3-yl)-4-[(3S)-tetrahydrofuran-3-yloxy]benzenesulfonamide] |
| 5.53 | 600 | COc1nc2c(cc1NS(=O)(=O)c1ccc([C@H]3CC[C@@H](OC)CC3)cc1)CCN(C)CC2 [Example 92, 4-(cis-4-methoxycyclohexyl)-N-(2-methoxy-7-methyl-6,7,8,9-tetrahydro-5H-pyrido[2,3-d]azepin-3-yl)benzenesulfonamide] |
| 0.6 | 45.3 | COc1nc2c(cc1NS(=O)(=O)c1ccc(C3(OC)CCCC3)cc1)CCN(C)CC2 [Example 95, 4-(1-methoxycyclopentyl)-N-(2-methoxy-7-methyl-6,7,8,9-tetrahydro-5H-pyrido[2,3-d]azepin-3-yl)benzenesulfonamide] |
| 2.79 | 317 | CCN1CCc2cc(NS(=O)(=O)c3ccc([C@]4(F)C[C@H](OC)C4)cc3)c(OC)nc2CC1 [Example 96, N-(7-ethyl-2-methoxy-6,7,8,9-tetrahydro-5H-pyrido[2,3-d]azepin-3-yl)-4-(trans-1-fluoro-3-methoxycyclobutyl)benzenesulfonamide] |
| 5.89 | 983 | COc1nc2c(cc1NS(=O)(=O)c1ccc(OC3CCOC3)nc1)CCN(C)CC2 (stereo not drawn) [Example 97, N-(2-methoxy-7-methyl-6,7,8,9-tetrahydro-5H-pyrido[2,3-d]azepin-3-yl)-6-(tetrahydrofuran-3-yloxy)pyridine-3-sulfonamide] |
| 4.01 | 488 | COc1nc2c(cc1NS(=O)(=O)c1ccc([C@@H]3CCCO3)cc1)CCN(C)CC2 [Example 98, N-(2-methoxy-7-methyl-6,7,8,9-tetrahydro-5H-pyrido[2,3-d]azepin-3-yl)-4-[(2S)-tetrahydrofuran-2-yl]benzenesulfonamide] |
| 3.05 | 314 | COc1nc2c(cc1NS(=O)(=O)c1ccc([C@H]3CCCO3)cc1)CCN(C)CC2 [Example 99, N-(2-methoxy-7-methyl-6,7,8,9-tetrahydro-5H-pyrido[2,3-d]azepin-3-yl)-4-[(2R)-tetrahydrofuran-2-yl]benzenesulfonamide] |
| 6.35 | 663 | COc1nc2c(cc1NS(=O)(=O)c1ccc(C3(OC)CCCC3)nc1)CCN(C)CC2 [Example 100, 6-(1-methoxycyclopentyl)-N-(2-methoxy-7-methyl-6,7,8,9-tetrahydro-5H-pyrido[2,3-d]azepin-3-yl)pyridine-3-sulfonamide] |
| 6.26 | 677 | CCN1CCc2cc(NS(=O)(=O)c3ccc(C4(F)CCCC4)nc3)c(OC)nc2CC1 [Example 101, N-(7-ethyl-2-methoxy-6,7,8,9-tetrahydro-5H-pyrido[2,3-d]azepin-3-yl)-6-(1-fluorocyclopentyl)pyridine-3-sulfonamide] |
| 2.81 | 325 | CCN1CCc2cc(NS(=O)(=O)c3ccc(C4CCCC4)nc3)c(OC)nc2CC1 [Example 102, 6-cyclopentyl-N-(7-ethyl-2-methoxy-6,7,8,9-tetrahydro-5H-pyrido[2,3-d]azepin-3-yl)pyridine-3-sulfonamide] |
| 0.39 | 3.91 | COc1nc2c(cc1NS(=O)(=O)c1ccc([C@H]3CCCCO3)c(C)c1)CCN(C)CC2 [Example 104, N-(2-methoxy-7-methyl-6,7,8,9-tetrahydro-5H-pyrido[2,3-d]azepin-3-yl)-3-methyl-4-[(2R)-tetrahydro-2H-pyran-2-yl]benzenesulfonamide] |
| 0.46 | 26.1 | COc1nc2c(cc1NS(=O)(=O)c1ccc([C@@H]3CCCCO3)c(C)c1)CCN(C)CC2 [Example 105, N-(2-methoxy-7-methyl-6,7,8,9-tetrahydro-5H-pyrido[2,3-d]azepin-3-yl)-3-methyl-4-[(2S)-tetrahydro-2H-pyran-2-yl]benzenesulfonamide] |
| 0.46 | 7.24 | CCN1CCc2cc(NS(=O)(=O)c3ccc([C@H]4CCCCO4)c(C)c3)c(OC)nc2CC1 [Example 107, N-(7-ethyl-2-methoxy-6,7,8,9-tetrahydro-5H-pyrido[2,3-d]azepin-3-yl)-3-methyl-4-[(2R)-tetrahydro-2H-pyran-2-yl]benzenesulfonamide] |
| 1.27 | 25 | COc1nc2c(cc1NS(=O)(=O)c1ccc([C@H]3CCCCO3)c(F)c1)CCN(C)CC2 [Example 110, 3-fluoro-N-(2-methoxy-7-methyl-6,7,8,9-tetrahydro-5H-pyrido[2,3-d]azepin-3-yl)-4-[(2R)-tetrahydro-2H-pyran-2-yl]benzenesulfonamide] |
| 2.3 | 100 | COc1nc2c(cc1NS(=O)(=O)c1ccc([C@@H]3CCCCO3)c(F)c1)CCN(C)CC2 [Example 111, 3-fluoro-N-(2-methoxy-7-methyl-6,7,8,9-tetrahydro-5H-pyrido[2,3-d]azepin-3-yl)-4-[(2S)-tetrahydro-2H-pyran-2-yl]benzenesulfonamide] |
| 2.36 | 45.7 | CCN1CCc2cc(NS(=O)(=O)c3ccc(C4(F)CCCCC4)nc3)c(OC)nc2CC1 [Example 112, N-(7-ethyl-2-methoxy-6,7,8,9-tetrahydro-5H-pyrido[2,3-d]azepin-3-yl)-6-(1-fluorocyclohexyl)pyridine-3-sulfonamide] |
| 3.94 | 143 | COc1nc2c(cc1NS(=O)(=O)c1ccc(C3CCC3)nc1)CCN(C)CC2 [Example 113, 6-cyclobutyl-N-(2-methoxy-7-methyl-6,7,8,9-tetrahydro-5H-pyrido[2,3-d]azepin-3-yl)pyridine-3-sulfonamide] |

| Structure (SMILES) | Ki [1] [nM] | Ki [2] [nM] |
| --- | --- | --- |
| COc1nc2c(cc1NS(=O)(=O)c1ccc(OC(C)(C)C)nc1)CCN(C)CC2 [Example 103, 6-tert-butoxy-N-(2-methoxy-7-methyl-6,7,8,9-tetrahydro-5H-pyrido[2,3-d]azepin-3-yl)pyridine-3-sulfonamide] | 1.85 | 45.2 |
